The source made the active and inactive calls. The rule behind the calls is not given here.
The compounds below were run on RAW264.7 (assay: Antiinflammatory activity against mouse RAW264.7 cells assessed as stimulation LPS-induced TNFalpha release at 100 uM pretreated for 30 mins before LPS challenge by ELISA).
Format: functional, cell-based

SMILES	Activity
CO[C@@H]1[C@@H](O)[C@H](O[C@@H]2[C@@H](C)O[C@@H](O[C@H]3[C@@H](OC)C[C@H](O[C@@H]4[C@@H](C)O[C@@H](O[C@H]5CC[C@@]6(CO)C(=CC[C@@H]7[C@@H]6CC[C@]6(C)[C@@H]8[C@H]9CO[C@@]8(C)O[C@@]76O9)C5)C[C@H]4OC)O[C@@H]3C)C[C@H]2OC)O[C@H](C)[C@H]1O[C@@H]1O[C@H](CO)[C@@H](O)[C@H](O)[C@H]1O	Active
CO[C@H]1C[C@H](O[C@H]2CC[C@@]3(COC(C)=O)C(=CC[C@@H]4[C@@H]3CC[C@]3(C)[C@@H]5[C@H]6CO[C@@]5(C)O[C@@]43O6)C2)O[C@H](C)[C@H]1O[C@H]1C[C@H](OC)[C@H](O[C@H]2C[C@@H](O)[C@H](O[C@H]3C[C@@H](OC)[C@H](O[C@@H]4O[C@H](CO)[C@@H](O)[C@H](O)[C@H]4O)[C@@H](C)O3)[C@@H](C)O2)[C@@H](C)O1	Active
CO[C@@H]1[C@@H](O)[C@H](O[C@@H]2[C@@H](C)O[C@@H](O[C@H]3[C@@H](OC)C[C@H](O[C@H]4[C@H](O)C[C@H](O[C@H]5CC[C@@]6(C)C(=CC[C@@H]7[C@@H]6CC[C@]6(C)[C@@H]8[C@H]9CO[C@@]8(C)O[C@@]76O9)C5)O[C@@H]4C)O[C@@H]3C)C[C@H]2OC)O[C@H](C)[C@H]1O[C@@H]1O[C@H](CO)[C@@H](O)[C@H](O)[C@H]1O	Active
COC(=O)C[C@H](O[C@H]1CC[C@@]2(C)C(=CC[C@@H]3[C@@H]2CC[C@]2(C)[C@@H]4[C@H]5CO[C@@]4(C)O[C@@]32O5)C1)O[C@H](C)C(=O)O	inactive
